Reference: the RepoRT retention time repository

Test: HILIC, Waters ACQUITY UPLC BEH Amide, 100 × 2.1 mm, 1.7 µm; A: water + 0.125% formic acid + 10 mM ammonium formate; B: 5% water + 95% acetonitrile + 0.125% formic acid + 10 mM ammonium formate; gradient (min/%B) 0/100 2/100 7.7/70 9.5/40 10.25/30 12.75/100 17/100
Settings: stereoisomer not certain

| Compound | LC retention time [min] |
| --- | --- |
| C=Cc1ccc(O)c(OC)c1 [2-Methoxy-4-vinylphenol] | 8.71 |
| CC(=O)OCc1ccccc1 [Benzylacetate] | 8.71 |
| CC=CC(=O)N(CC)c1ccccc1C [Crotamiton] | 0.97 |
| COc1ccc(C(CN(C)C)C2(O)CCCCC2)cc1 (configuration not stated) [Venlafaxine] | 2.44 |
| CC12CCC(=O)C=C1CCC1C2CCC2(C)C1CCC2(O)C(=O)CO (configuration not stated) [Cortodoxone] | 1.15 |
| CC(C=CC1(O)C(C)=CC(=O)CC1(C)C)=CC(=O)O (configuration not stated) [Abscisic acid] | 1.33 |
| OCC1OC(n2cnc3c(NC4CCCC4)nc(Cl)nc32)C(O)C1O (configuration not stated) [2-Chloro-N6-cyclopentyladenosine] | 1.47 |
| CCN(CC)C(=S)SSC(=S)N(CC)CC [Disulfiram] | 0.93 |
| C#CC1(O)CCC2C3CCc4cc(O)ccc4C3CCC21C (configuration not stated) [Ethynylestradiol] | 0.99 |
| O=C(c1ccc(F)cc1)C1CCN(CCn2c(=S)[nH]c3ccccc3c2=O)CC1 [Altanserin] | 2.64 |
| Cc1cnc(=O)[nH]c1N [5-Methylcytosine] | 6.62 |
| CN(C)c1ccc(N=Nc2ccccc2)cc1 [p-(Dimethylamino)azobenzene [methyl yellow]] | 0.93 |
| O=C(O)C(=O)Cc1c[nH]c2ccccc12 [Indole-3-pyruvic acid] | 5.11 |
| COc1ccc(-c2coc3cc(O)ccc3c2=O)cc1 [Formononetine] | 1.18 |
| NC(N)=NCCCC(N)C(=O)O (configuration not stated) [Arginine] | 9.53 |
| CC1OC(OC2C(CO)OC(OC3C(CO)OC(O)C(O)C3O)C(O)C2O)C(O)C(O)C1NC1C=C(CO)C(O)C(O)C1O (configuration not stated) [Acarbose] | 9.88 |
| COc1ccc(OC)c(C(O)C(C)N)c1 (configuration not stated) [Methoxamine] | 4.75 |
| Nc1ncnc2c1ncn2C1OC(CO)C(OP(=O)(O)O)C1O (configuration not stated) [Adenosine-3-monophosphate] | 8.88 |
| CC1=C2C3OC(=O)C(C)C3CCC2(C)C=CC1=O (stereo not drawn) [alpha-Santonin] | 1.07 |
| CC(C)Oc1ccc2c(=O)c(-c3ccccc3)coc2c1 [Ipriflavone] | 0.94 |
| CN1C2CC(OC(=O)C(CO)c3ccccc3)CC1C1OC12 (configuration not stated) [Scopolamine] | 3.75 |
| CNc1ccccc1 [N-Methylaniline] | 1.06 |
| CNc1ncnc2c1ncn2C1OC(CO)C(O)C1O (configuration not stated) [6-Methyladenosine] | 3.56 |
| O=P(O)(O)OC1OC(CO)C(O)C(O)C1O (configuration not stated) [Glucose-1-phosphate] | 9.61 |
| O=C(O)C1NCCC1O (configuration not stated) [3-Hydroxyproline] | 8.17 |
| Cn1c(=O)[nH]c2[nH]c(=O)n(C)c2c1=O [1,7-Dimethyluric acid] | 4.09 |
| CCC(=O)Nc1ccc(Cl)c(Cl)c1 [Propanil] | 1.08 |
| NCCO [Ethanolamine] | 7.15 |

| Compound | LC retention time [min] |
| --- | --- |
| O=C(O)CC1C(=O)Nc2ccccc21 (configuration not stated) [(2-oxo-2,3-dihydro-1H-indol-3-yl)acetic acid] | 2.02 |
| COc1cc(-c2oc3cc(O)cc(O)c3c(=O)c2OC2OC(CO)C(O)C(O)C2O)ccc1O (configuration not stated) [Isorhamnetin-3-glucoside] | 4.49 |
| CC(C)CC(NC(=O)C(COC(C)(C)C)NC(=O)C(Cc1ccc(O)cc1)NC(=O)C(CO)NC(=O)C(Cc1c[nH]c2ccccc12)NC(=O)C(Cc1cnc[nH]1)NC(=O)C1CCC(=O)N1)C(=O)NC(CCCN=C(N)N)C(=O)N1CCCC1C(=O)NNC(N)=O (configuration not stated) [Goserelin] | 7.83 |
| COC(=O)N1CCN(C(=O)Cc2ccc(Cl)c(Cl)c2)C(CN2CCCC2)C1 (configuration not stated) | 2.56 |
| CC(C)=CCCC(C)O (configuration not stated) [6-Methyl-5-hepten-2-ol] | 7.3 |
| NCCCCN=C(N)N [Agmatine] | 8.92 |
| NC(N)=NCCCC(NC(=O)C(N)CCC(=O)O)C(=O)O (configuration not stated) [Glu-Arg] | 9.9 |
| Cn1c[n+](C2OC(CO)C(O)C2O)c2nc(N)nc([O-])c21 (configuration not stated) [7-Methylguanosine] | 7.34 |
| CC(O)C(C)O (configuration not stated) [2,3-Butanediol] | 3.34 |
| CC1CCCC(O)CCCCCc2cc(O)cc(O)c2C(=O)O1 (configuration not stated) [Zeranol] | 1.11 |
| NCCc1c[nH]c2ccc(O)cc12 [Serotonin] | 1.44 |
| Cn1cncc1CC(NC(=O)CCN)C(=O)O (configuration not stated) [Anserine] | 9.49 |
| CC(C)(C)NCC(O)c1ccc(O)c(CO)c1 (configuration not stated) [Albuterol] | 5.55 |
| NCC(=O)NC(Cc1ccc(O)cc1)C(=O)O (configuration not stated) [Gly-Tyr] | 8.07 |
| C=CC1=C(C(=O)O)N2C(=O)C(NC(=O)C(=NO)c3csc(N)n3)C2SC1 (configuration not stated) [Cefdinir] | 6.94 |
| CC(NC(C)(C)C)C(=O)c1cccc(Cl)c1 (configuration not stated) [Bupropion] | 2.22 |
| O=C1CCCCC1=O [1,2-Cyclohexanedione] | 5.77 |
| Cn1c(=O)[nH]c2ncn(C)c2c1=O [1,7-Dimethylxanthine] | 1.69 |
| Cc1nnc2n1-c1ccc(Cl)cc1C(c1ccccc1Cl)=NC2 [Triazolam] | 1.3 |
| Cn1c(=O)c2c([nH]c(=O)n2C)n(C)c1=O [1,3,7-Trimethyluric acid] | 1.83 |
| c1ccc2c3c([nH]c2c1)CNCC3 [Tryptoline] | 4.9 |
| CCCCCCCCCCCCCCCCC(=O)O [Heptadecanoic acid] | 3.01 |
| NC(CCC(=O)O)C(=O)NC(Cc1ccccc1)C(=O)O (configuration not stated) [Glu-Phe] | 8.2 |
| CC12CCC3C(CCC4CC(O)CCC43C)C1CCC2=O (configuration not stated) [Androsterone] | 4.62 |
| NC(Cn1cccn1)C(=O)O (configuration not stated) [3-(1-Pyrazolyl)-alanine] | 7.54 |
| CCCCC1=NC2(CCCC2)C(=O)N1Cc1ccc(-c2ccccc2-c2nn[nH]n2)cc1 [Irbesartan] | 1.16 |
| CC(=O)CC(C)(C)O [4-Hydroxy-4-methyl-2-pentanone] | 4.88 |

The remaining lines, values ahead:

| LC retention time [min] | Compound |
| --- | --- |
| 9.3 | NCCCCN [Putrescine] |
| 4.61 | CNNCc1ccc(C(=O)NC(C)C)cc1 [Procarbazine] |
| 1.05 | C=C1CCOC1=O [alpha-Methylene-gamma-butyrolactone] |
| 3.1 | CCCCCC=CCC=CCCCCCCCC(=O)OC(CC(=O)[O-])C[N+](C)(C)C (configuration not stated) [Linoleoylcarnitine] |
| 7.4 | CN(C)CC(=O)O [N,N-Dimethylglycine] |
| 7.35 | CN[C@@H](CCCCN)C(=O)O [N.alpha.-Methyl-L-lysine] |
| 6.98 | CCCCCCCC=O [Octanal] |
| 5.11 | CN(C)CCc1c[nH]c2ccc(Cn3cncn3)cc12 [Rizatriptan] |
| 7.8 | NC(=O)NC(CCC(=O)O)C(=O)O (configuration not stated) [Ureidoglutaric acid] |
| 5.34 | CN1CCCC1c1cccnc1 (configuration not stated) [Nicotine] |
| 8.12 | OCCN1CC(O)C(O)C(O)C1CO (configuration not stated) [Miglitol] |
| 1.15 | O=C(O)c1ccccc1C(=O)O [Phthalic acid] |
| 1 | CC(=O)Oc1ccccc1C(=O)Nc1ncc([N+](=O)[O-])s1 [Nitazoxanide] |
| 7.83 | O=C(O)C1CCCCN1 (configuration not stated) [Pipecolic acid] |
| 1.51 | O=C(OC1C(Oc2ccccc2COC(=O)C2(O)C=CCCC2=O)OC(CO)C(O)C1O)c1ccccc1 (configuration not stated) [Tremulacin] |
| 1.08 | Cc1ncc([N+](=O)[O-])n1CC(O)CCl (configuration not stated) [Ornidazole] |
| 1.03 | Nc1nc2ccc(OC(F)(F)F)cc2s1 [Riluzole] |
| 1.11 | O=C(NCCO[N+](=O)[O-])c1cccnc1 [Nicorandil] |
| 1 | C#CC1(O)CCC2C3C(C)CC4=C(CCC(=O)C4)C3CCC21C (configuration not stated) [Tibolone] |

| LC retention time [min] | Compound |
| --- | --- |
| 7.82 | CNCC(=O)O [Sarcosine] |
| 4.64 | OCC1OC(Oc2cc(O)cc(C=Cc3ccc(O)cc3)c2)C(O)C(O)C1O (stereo not drawn) [trans-Piceid] |
| 5.18 | CNC(=C[N+](=O)[O-])NCCSCc1ccc(CN(C)C)o1 [Ranitidine] |
| 4.48 | OCc1ccccc1OC1OC(CO)C(O)C(O)C1O (configuration not stated) [Salicin] |
| 1.01 | CSc1nc2cc(Oc3cccc(Cl)c3Cl)c(Cl)cc2[nH]1 [Triclabendazole] |
| 2.03 | O=C(NCCN1CCOCC1)c1ccc(Cl)cc1 [Moclobemide] |
| 2.89 | CN1CCc2cc(Cl)c(O)cc2C(c2ccccc2)C1 (configuration not stated) [UNII-UGT5535REQ] |
| 3.08 | Fc1ccc(C2CCNCC2COc2ccc3c(c2)OCO3)cc1 (configuration not stated) [Paroxetine] |
| 8.97 | O=c1ccn(C2OC(COP(=O)(O)O)C(O)C2O)c(=O)[nH]1 (configuration not stated) [Uridine 5'-monophosphate] |
| 2.14 | O=C1C2CCCCC2C(=O)N1CCCCN1CCN(c2nsc3ccccc23)CC1 (configuration not stated) [Perospirone] |
| 4.58 | COc1ccccc1N1CCN(CCCNc2cc(=O)n(C)c(=O)n2C)CC1 [Urapidil] |
| 2.18 | CN1CCN(C2=Nc3ccccc3Oc3ccc(Cl)cc32)CC1 [Loxapine] |
| 7.6 | CC(=O)OCC[C@H](N)C(=O)O [O-Acetyl-L-homoserine] |
| 1.08 | Clc1ccc(CON=C(Cn2ccnc2)c2ccc(Cl)cc2Cl)c(Cl)c1 [Oxiconazole] |
| 1.29 | O=C(c1ccccc1)c1ccc2n1CCC2C(=O)O (configuration not stated) [Toradol] |
| 6.15 | O=C(O)c1cc(=O)c2ccccc2[nH]1 [Kynurenic acid] |
| 1.28 | CC(C)CC(NC(=O)OCc1ccccc1)C(=O)O (configuration not stated) [N-Carbobenzyloxyleucine] |
| 3.52 | Cc1nc2n(c(=O)c1CCN1CCC(c3noc4cc(F)ccc34)CC1)CCCC2 [Risperidone] |
